# Results taken from ChEMBL document CHEMBL4043200, “Synthesis and biological evaluation of 8-aryl-2-morpholino-7-O-substituted benzo[e][1,3]oxazin-4-ones against DNA-PK, PI3K, PDE3A enzymes and platelet aggregation” (Bioorg Med Chem, 2017).
# Experiments:
# [1] = target: DNA-dependent protein kinase catalytic subunit (Homo sapiens, UniProt P78527); assay: Inhibition of human DNA-PK catalytic subunit at 10 uM using DNA and [EPPLSQEAFADLWKK] peptide substrate by HTRF assay
# [2] = target: cGMP-inhibited 3',5'-cyclic phosphodiesterase 3A (Homo sapiens, UniProt Q14432); assay: Inhibition of human PDE3A at 10 uM by HTRF assay
# [3] = target: Phosphatidylinositol 4,5-bisphosphate 3-kinase catalytic subunit alpha isoform (Homo sapiens) (UniProt P42336); assay: Inhibition of wild type PI3K-alpha (unknown origin) assessed as decrease in ATP consumption at 10 uM using phosphotidylinositol bisphosphate and ATP measured after 60 mins by Kinase-Glo reagent based luminescence assay
# Sequence of Phosphatidylinositol 4,5-bisphosphate 3-kinase catalytic subunit alpha isoform (Homo sapiens) (P42336 whole entry, canonical isoform): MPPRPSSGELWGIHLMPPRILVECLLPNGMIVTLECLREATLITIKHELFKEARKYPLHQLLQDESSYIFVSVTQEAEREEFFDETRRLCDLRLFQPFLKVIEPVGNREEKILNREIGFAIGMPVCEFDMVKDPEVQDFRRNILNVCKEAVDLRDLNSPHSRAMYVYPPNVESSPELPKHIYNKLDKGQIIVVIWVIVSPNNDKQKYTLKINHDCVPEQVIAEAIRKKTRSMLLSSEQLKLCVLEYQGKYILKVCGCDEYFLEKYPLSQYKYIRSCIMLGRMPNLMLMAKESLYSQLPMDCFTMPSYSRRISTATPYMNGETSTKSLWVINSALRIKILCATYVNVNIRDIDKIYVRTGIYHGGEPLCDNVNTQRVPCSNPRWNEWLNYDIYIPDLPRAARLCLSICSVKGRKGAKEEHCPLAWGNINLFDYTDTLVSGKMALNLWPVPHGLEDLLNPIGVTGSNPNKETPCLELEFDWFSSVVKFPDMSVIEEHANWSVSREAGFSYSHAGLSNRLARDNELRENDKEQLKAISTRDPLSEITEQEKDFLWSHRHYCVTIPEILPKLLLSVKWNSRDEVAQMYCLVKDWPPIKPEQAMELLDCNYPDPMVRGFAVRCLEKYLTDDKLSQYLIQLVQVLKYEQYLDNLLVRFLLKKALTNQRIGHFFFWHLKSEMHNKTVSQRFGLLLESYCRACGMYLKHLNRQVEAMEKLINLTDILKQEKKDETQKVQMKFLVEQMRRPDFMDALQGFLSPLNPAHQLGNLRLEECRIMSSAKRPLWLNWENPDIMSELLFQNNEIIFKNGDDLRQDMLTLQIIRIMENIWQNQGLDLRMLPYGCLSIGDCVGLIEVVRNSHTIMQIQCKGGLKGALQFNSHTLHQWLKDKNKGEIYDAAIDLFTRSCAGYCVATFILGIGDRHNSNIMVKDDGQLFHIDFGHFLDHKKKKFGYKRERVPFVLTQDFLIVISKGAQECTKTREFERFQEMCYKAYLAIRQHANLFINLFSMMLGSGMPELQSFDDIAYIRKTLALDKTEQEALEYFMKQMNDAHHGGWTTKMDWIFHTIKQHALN
# [4] = target: Phosphatidylinositol 4,5-bisphosphate 3-kinase catalytic subunit beta isoform (Homo sapiens) (UniProt P42338); assay: Inhibition of wild type PI3K-beta (unknown origin) assessed as decrease in ATP consumption at 10 uM using phosphotidylinositol bisphosphate and ATP measured after 60 mins by Kinase-Glo reagent based luminescence assay
# [5] = target: Phosphatidylinositol 4,5-bisphosphate 3-kinase catalytic subunit gamma isoform (Homo sapiens) (UniProt P48736); assay: Inhibition of wild type PI3K-gamma (unknown origin) assessed as decrease in ATP consumption at 10 uM using phosphotidylinositol bisphosphate and ATP measured after 60 mins by Kinase-Glo reagent based luminescence assay
# [6] = target: T1, Phosphatidylinositol 4,5-bisphosphate 3-kinase catalytic subunit delta isoform (Homo sapiens) (UniProt O00329); assay: Inhibition of wild type PI3K-delta (unknown origin) assessed as decrease in ATP consumption at 10 uM using phosphotidylinositol bisphosphate and ATP measured after 60 mins by Kinase-Glo reagent based luminescence assay
# T1 sequence (whole entry): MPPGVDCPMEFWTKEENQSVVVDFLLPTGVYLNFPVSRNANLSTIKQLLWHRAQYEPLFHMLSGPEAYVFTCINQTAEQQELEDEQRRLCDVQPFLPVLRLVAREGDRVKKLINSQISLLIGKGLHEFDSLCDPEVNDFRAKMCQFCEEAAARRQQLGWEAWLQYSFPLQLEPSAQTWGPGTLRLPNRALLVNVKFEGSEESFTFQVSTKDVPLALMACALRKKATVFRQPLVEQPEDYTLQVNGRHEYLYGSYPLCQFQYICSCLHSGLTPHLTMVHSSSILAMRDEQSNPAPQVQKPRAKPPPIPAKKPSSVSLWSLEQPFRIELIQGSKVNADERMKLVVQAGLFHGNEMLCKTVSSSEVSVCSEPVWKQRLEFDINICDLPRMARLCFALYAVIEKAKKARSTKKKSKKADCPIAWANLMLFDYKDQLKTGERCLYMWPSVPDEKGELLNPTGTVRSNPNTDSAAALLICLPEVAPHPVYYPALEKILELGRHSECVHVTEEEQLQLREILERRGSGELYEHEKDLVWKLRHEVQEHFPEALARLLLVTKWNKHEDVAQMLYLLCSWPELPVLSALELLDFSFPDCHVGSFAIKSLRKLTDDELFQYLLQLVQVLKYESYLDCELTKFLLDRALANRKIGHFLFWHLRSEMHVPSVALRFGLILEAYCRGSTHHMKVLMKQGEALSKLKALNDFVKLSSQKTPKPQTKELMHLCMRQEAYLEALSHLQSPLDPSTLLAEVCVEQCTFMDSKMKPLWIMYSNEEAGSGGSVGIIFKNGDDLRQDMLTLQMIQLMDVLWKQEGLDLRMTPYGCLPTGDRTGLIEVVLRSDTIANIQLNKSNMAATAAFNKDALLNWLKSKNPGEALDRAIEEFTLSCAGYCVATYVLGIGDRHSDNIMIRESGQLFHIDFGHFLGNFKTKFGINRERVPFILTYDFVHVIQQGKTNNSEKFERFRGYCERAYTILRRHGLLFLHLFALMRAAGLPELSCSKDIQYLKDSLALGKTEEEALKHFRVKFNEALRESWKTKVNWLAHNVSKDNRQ
# [7] = target: T2, Phosphatidylinositol 4,5-bisphosphate 3-kinase catalytic subunit delta isoform (Homo sapiens, UniProt O00329); assay: Inhibition of wild type PI3K-delta (unknown origin) assessed as decrease in ATP consumption using phosphotidylinositol bisphosphate and ATP measured after 60 mins by Kinase-Glo reagent based luminescence assay
# T2 sequence (O00329 whole entry): T1 sequence (whole entry)
# Sequence of DNA-dependent protein kinase catalytic subunit (P78527 whole entry): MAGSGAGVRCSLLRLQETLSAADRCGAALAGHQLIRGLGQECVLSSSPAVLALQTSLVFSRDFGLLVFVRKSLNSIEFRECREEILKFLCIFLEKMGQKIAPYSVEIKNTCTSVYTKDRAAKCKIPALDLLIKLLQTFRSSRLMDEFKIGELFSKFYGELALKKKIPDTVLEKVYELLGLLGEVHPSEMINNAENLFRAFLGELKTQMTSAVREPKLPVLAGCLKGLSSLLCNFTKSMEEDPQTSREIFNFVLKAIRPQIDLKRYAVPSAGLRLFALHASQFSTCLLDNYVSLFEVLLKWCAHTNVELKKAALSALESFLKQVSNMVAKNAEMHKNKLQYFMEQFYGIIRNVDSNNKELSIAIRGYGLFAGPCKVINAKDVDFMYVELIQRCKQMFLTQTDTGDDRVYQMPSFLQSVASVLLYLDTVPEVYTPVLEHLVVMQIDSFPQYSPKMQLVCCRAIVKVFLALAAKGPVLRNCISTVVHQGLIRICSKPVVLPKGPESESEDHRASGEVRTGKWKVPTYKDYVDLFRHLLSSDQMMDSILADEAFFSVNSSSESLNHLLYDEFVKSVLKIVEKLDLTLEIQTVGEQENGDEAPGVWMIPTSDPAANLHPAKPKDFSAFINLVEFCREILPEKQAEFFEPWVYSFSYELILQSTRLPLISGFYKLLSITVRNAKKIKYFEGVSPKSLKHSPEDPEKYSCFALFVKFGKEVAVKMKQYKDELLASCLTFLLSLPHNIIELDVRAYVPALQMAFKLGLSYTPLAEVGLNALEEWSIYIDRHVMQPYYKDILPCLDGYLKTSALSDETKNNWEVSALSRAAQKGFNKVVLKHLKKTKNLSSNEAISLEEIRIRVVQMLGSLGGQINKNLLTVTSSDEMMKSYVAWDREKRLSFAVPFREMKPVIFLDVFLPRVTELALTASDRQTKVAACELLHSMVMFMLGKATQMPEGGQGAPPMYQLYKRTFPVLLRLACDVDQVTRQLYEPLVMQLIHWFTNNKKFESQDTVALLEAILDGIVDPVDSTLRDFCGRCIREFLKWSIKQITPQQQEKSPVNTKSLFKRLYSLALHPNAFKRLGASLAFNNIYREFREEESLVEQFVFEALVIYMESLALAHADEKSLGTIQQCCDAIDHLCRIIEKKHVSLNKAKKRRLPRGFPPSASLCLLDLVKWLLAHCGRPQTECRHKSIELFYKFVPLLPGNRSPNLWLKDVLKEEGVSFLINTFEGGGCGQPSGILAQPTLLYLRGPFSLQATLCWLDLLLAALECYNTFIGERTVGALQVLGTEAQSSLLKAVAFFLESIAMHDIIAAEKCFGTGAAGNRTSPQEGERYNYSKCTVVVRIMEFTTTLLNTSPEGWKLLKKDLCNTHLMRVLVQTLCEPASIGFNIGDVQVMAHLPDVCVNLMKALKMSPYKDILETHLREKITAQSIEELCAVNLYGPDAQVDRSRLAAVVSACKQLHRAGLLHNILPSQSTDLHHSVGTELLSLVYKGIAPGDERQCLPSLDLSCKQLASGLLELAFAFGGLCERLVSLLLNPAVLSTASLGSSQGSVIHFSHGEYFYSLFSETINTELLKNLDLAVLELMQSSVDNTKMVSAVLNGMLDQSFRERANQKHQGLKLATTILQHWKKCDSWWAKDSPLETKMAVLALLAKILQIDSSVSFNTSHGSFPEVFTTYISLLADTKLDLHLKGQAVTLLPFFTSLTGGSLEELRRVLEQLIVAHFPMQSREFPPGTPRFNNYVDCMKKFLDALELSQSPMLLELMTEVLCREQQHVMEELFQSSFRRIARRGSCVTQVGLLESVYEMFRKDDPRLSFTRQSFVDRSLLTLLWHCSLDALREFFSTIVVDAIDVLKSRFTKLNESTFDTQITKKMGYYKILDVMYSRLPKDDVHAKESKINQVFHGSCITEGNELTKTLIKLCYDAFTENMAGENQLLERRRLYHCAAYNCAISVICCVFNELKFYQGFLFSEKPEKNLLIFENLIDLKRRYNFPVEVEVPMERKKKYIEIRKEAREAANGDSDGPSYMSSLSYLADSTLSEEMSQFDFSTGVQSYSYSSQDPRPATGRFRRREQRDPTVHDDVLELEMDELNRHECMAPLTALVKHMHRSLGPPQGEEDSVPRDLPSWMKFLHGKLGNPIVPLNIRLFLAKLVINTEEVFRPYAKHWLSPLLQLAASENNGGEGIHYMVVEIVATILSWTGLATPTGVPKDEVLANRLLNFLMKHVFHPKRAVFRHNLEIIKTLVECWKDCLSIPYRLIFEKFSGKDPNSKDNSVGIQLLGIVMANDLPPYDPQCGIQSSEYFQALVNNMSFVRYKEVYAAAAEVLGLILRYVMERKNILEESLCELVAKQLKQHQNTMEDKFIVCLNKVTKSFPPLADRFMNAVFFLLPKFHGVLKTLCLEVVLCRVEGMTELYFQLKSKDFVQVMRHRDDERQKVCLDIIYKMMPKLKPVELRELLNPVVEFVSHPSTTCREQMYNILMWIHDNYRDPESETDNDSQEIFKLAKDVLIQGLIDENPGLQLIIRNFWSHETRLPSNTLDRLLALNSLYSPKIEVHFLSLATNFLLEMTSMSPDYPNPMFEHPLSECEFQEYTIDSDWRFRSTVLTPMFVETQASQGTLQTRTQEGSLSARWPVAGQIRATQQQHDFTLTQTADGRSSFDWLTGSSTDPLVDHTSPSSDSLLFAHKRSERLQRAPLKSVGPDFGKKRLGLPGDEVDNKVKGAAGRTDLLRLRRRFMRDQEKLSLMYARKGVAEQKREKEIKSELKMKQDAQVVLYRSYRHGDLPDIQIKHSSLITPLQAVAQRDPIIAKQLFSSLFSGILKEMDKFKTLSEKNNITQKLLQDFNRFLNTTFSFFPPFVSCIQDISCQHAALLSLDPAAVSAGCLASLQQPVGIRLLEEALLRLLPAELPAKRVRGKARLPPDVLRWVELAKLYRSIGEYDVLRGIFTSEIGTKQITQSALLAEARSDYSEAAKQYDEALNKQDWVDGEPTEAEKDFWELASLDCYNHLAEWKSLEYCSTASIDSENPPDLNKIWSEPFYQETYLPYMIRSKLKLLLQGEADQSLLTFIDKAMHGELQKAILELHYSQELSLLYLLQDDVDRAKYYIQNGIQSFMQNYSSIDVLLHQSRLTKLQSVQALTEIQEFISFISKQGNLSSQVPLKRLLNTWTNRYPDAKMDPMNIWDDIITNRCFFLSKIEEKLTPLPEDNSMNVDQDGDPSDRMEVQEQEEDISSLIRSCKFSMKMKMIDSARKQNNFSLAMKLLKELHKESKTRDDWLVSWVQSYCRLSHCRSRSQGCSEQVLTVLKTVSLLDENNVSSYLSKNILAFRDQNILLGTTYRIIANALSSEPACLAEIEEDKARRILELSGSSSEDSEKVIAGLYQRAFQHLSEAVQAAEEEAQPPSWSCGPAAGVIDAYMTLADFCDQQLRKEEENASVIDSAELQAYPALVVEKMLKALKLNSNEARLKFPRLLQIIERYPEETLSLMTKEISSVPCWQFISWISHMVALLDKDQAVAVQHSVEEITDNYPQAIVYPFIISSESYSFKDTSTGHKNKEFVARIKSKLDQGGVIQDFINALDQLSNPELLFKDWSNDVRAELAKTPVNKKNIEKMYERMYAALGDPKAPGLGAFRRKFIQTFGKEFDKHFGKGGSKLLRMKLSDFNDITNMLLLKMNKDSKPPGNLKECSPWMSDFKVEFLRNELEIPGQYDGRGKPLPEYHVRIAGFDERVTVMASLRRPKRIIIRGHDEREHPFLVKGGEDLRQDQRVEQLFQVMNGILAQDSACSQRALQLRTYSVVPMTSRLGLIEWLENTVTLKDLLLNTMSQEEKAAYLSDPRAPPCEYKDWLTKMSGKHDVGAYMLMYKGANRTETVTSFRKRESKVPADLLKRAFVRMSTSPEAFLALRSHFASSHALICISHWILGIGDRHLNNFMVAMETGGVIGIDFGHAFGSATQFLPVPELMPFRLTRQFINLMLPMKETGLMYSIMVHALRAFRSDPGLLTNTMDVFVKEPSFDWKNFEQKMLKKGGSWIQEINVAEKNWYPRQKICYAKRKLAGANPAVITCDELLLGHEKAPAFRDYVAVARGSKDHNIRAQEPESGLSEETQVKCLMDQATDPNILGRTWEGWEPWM
SMILES,inhibition [1],inhibition [2],inhibition [3],inhibition [4],inhibition [5],inhibition [6],IC50 [7]
O=c1nc(N2CCOCC2)oc2c(-c3cccc4c3sc3ccccc34)c(OCc3ccccc3)ccc12,64.4%,31.2%,,15.1%,,6.3%,
O=c1nc(N2CCOCC2)oc2c(-c3cccs3)c(OCc3cccnc3)ccc12,38.1%,61.8%,3.3%,5.3%,1.7%,20.7%,
COc1ccc(-c2c(OCc3ccccn3)ccc3c(=O)nc(N4CCOCC4)oc23)cc1,33.8%,50.4%,28.9%,42.9%,12.6%,85.4%,2.7 µM
O=c1nc(N2CCOCC2)oc2c(-c3cccc4c3Sc3ccccc3S4)c(OCc3ccccc3)ccc12,-1.7%,27.3%,,0.6%,,-1%,
O=c1nc(N2CCOCC2)oc2c(-c3ccsc3)c(OCc3cccnc3)ccc12,44%,61.9%,-3.3%,0.3%,3.8%,16.6%,
COc1ccc(-c2c(OCc3cccnc3)ccc3c(=O)nc(N4CCOCC4)oc23)cc1,33.5%,29.8%,30%,39.3%,-2.2%,87.8%,2.8 µM
O=c1nc(N2CCOCC2)oc2c(-c3cc4ccccc4s3)c(OCc3cccnc3)ccc12,8.9%,56.4%,2.6%,18.1%,-8.1%,75.6%,2.7 µM
COc1ccc(-c2c(OCCN3CCN(C)CC3)ccc3c(=O)nc(N4CCOCC4)oc23)cc1,18.1%,11.5%,40.3%,44.8%,6.23%,73.9%,5.68 µM
O=c1nc(N2CCOCC2)oc2c(-c3ccc(Cl)cc3)c(OCCBr)ccc12,31%,11.3%,-6.1%,7.6%,,53.6%,
O=c1nc(N2CCOCC2)oc2c(-c3ccsc3)c(OCc3ccncc3)ccc12,32.8%,55.3%,21.4%,53.6%,7.7%,72.2%,
Nc1cccc(-c2c(OCc3cccnc3)ccc3c(=O)nc(N4CCOCC4)oc23)c1,9.8%,,18.4%,28.2%,-6.9%,41.9%,
CN1CCN(CCOc2ccc3c(=O)nc(N4CCOCC4)oc3c2-c2ccc(Cl)cc2)CC1,11.6%,21.8%,12.7%,20.3%,1.4%,49.4%,
O=c1nc(N2CCOCC2)oc2c(-c3cc4ccccc4s3)c(OCc3ccccc3)ccc12,,58.1%,-7.3%,0.4%,-7.1%,1.1%,
O=c1nc(N2CCOCC2)oc2c(-c3ccc(Cl)cc3)c(OCc3ccccc3)ccc12,25.7%,31.4%,0.2%,11%,9.8%,27.4%,
Nc1cccc(-c2c(OCc3ccccn3)ccc3c(=O)nc(N4CCOCC4)oc23)c1,7.3%,20%,16.2%,65.5%,6.4%,47.6%,
O=c1nc(N2CCOCC2)oc2c(-c3ccccc3)c(OCc3ccncc3)ccc12,15.1%,60.1%,46.1%,68.1%,8.2%,80.8%,5.8 µM
O=c1nc(N2CCOCC2)oc2c(-c3ccccc3)c(OCc3ccccc3)ccc12,13.6%,24%,21.3%,29.8%,5.4%,58.7%,
O=c1nc(N2CCOCC2)oc2c(-c3ccc(Cl)cc3)c(OCc3ccccn3)ccc12,27%,63.3%,28.6%,48.8%,23.5%,62.1%,14.7 µM
O=c1nc(N2CCOCC2)oc2c(-c3cccc4ccccc34)c(OCc3ccccc3)ccc12,4.07%,51.3%,,4.67%,,9.5%,
O=c1nc(N2CCOCC2)oc2c(-c3cccc4c3oc3ccccc34)c(OCc3ccccc3)ccc12,41.5%,62.9%,,,-4.1%,-2.9%,

# More lines, now with the values ahead:
inhibition [1],inhibition [2],inhibition [3],inhibition [4],inhibition [5],inhibition [6],IC50 [7],SMILES
17.2%,46.9%,-1.7%,21%,-2.3%,34.5%,,O=c1nc(N2CCOCC2)oc2c(-c3cccnc3)c(OCc3ccccc3)ccc12
33.6%,33.5%,36.2%,53.8%,,96.3%,2.9 µM,COc1ccc(-c2c(OCc3ccncc3)ccc3c(=O)nc(N4CCOCC4)oc23)cc1
46.6%,38.8%,4.8%,20.6%,,39.5%,,O=c1nc(N2CCOCC2)oc2c(-c3ccsc3)c(OCc3ccccc3)ccc12
21.5%,56.1%,28.7%,56.6%,26.5%,63.3%,9.2 µM,O=c1nc(N2CCOCC2)oc2c(-c3ccc(Cl)cc3)c(OCc3ccncc3)ccc12
40%,2.8%,0.6%,19.8%,-0.5%,65.7%,,COc1ccc(-c2c(OCc3ccccc3)ccc3c(=O)nc(N4CCOCC4)oc23)cc1
10.1%,43.6%,,-5.5%,-5.5%,9.7%,,Nc1cccc(-c2c(OCc3ccncc3)ccc3c(=O)nc(N4CCOCC4)oc23)c1
46.1%,59.9%,-9.9%,,-3.5%,9.2%,,O=c1nc(N2CCOCC2)oc2c(-c3cccs3)c(OCc3ccccc3)ccc12
31.1%,24%,40.7%,33.8%,-6.4%,75.9%,,O=c1nc(N2CCOCC2)oc2c(-c3ccccc3)c(OCCBr)ccc12
36%,18.9%,39.1%,54.2%,,84.7%,3.07 µM,O=c1nc(N2CCOCC2)oc2c(-c3ccc(CO)cc3)c(OCc3ccccc3)ccc12
39.2%,55.3%,-2.9%,5.4%,-1.5%,24%,,O=c1nc(N2CCOCC2)oc2c(-c3cccs3)c(OCc3ccncc3)ccc12
9.1%,5.1%,31.6%,63.1%,19.8%,63.4%,,Nc1cccc(-c2c(OCc3ccccc3)ccc3c(=O)nc(N4CCOCC4)oc23)c1
8.7%,51.6%,,,0.2%,27.2%,,O=c1nc(N2CCOCC2)oc2c(-c3cc4ccccc4s3)c(OCc3ccncc3)ccc12
